# Experiments:
# [1] = tested on: U87MG Cell line (Glioblastoma cell line); test: MTT cell proliferation assay, U87MG Cell line; type: cell-based; conditions: Homo sapiens, U-87 MG, U87MG, 72 h, MTT
# HOP-62 Cell line = test: MTT cell proliferation assay, HOP-62 Cell line; type: cell-based; conditions: Homo sapiens, 72 h, MTT
# [2] = tested on: A549 Cell line (Lung Cancer Cell line); test: MTT cell proliferation assay, A549 Cell line; type: cell-based, human; conditions: Homo sapiens, 72 h, MTT
# Log P (Table 3) = type: physicochemical; conditions: no method given
# MDA-MB-436 Cell line = test: MTT cell proliferation assay, MDA-MB-436 Cell line; type: cell-based; conditions: Homo sapiens, 72 h, MTT
# In short: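 Cells seeded at 10,000 per well and exposed to serial compound dilutions for 72 h at 37 °C. Viability read by MTT, formazan dissolved in DMSO, absorbance at 600 nm. IC50 by nonlinear regression as concentration giving 50% absorbance reduction versus untreated cells.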
# MCF-7 Cell line = test: MTT cell proliferation assay, MCF-7 Cell line; type: cell-based; conditions: Homo sapiens, MCF7, 72 h, MTT
compound,measurement,setting,value
"Nc1nc(Nc2ccc(Br)cc2F)sc1-c1nc2ccccc2[nH]1 [Molecule S4-M7, 5-(1H-benzo[d]imidazol-2-yl)-N^2-(4-bromo-2-fluorophenyl)thiazole-2,4-diamine]",viability at 0.01 µM,[1]; 0.01 μM,98.1%
same,viability at 0.1 µM,[1]; 0.1 μM,94.9%
same,viability at 2.5 µM,[1]; 2.5 μM,93.8%
same,viability at 5 µM,[1]; 5 μM,90.8%
same,viability at 10 µM,[1]; 10 μM,85.8%
same,viability at 0.01 µM,"HOP-62 Cell line; HOP-62, 0.01 μM",102%
same,viability at 0.1 µM,"HOP-62 Cell line; HOP-62, 0.1 μM",101%
same,viability at 2.5 µM,"HOP-62 Cell line; HOP-62, 2.5 μM",100%
same,viability at 5 µM,"HOP-62 Cell line; HOP-62, 5 μM",100%
same,viability at 10 µM,"HOP-62 Cell line; HOP-62, 10 μM",90.9%
same,viability at 0.01 µM,"[2]; A549, 0.01 μM",97.1%
same,viability at 0.1 µM,"[2]; A549, 0.1 μM",90.9%
same,viability at 2.5 µM,"[2]; A549, 2.5 μM",81.8%
same,viability at 5 µM,"[2]; A549, 5 μM",71.8%
same,viability at 10 µM,"[2]; A549, 10 μM",62.8%
same,logP,Log P (Table 3),3.2
same,melting point,,200 to 202 °C
same,viability at 0.01 µM,"MDA-MB-436 Cell line; MDA-MB-436, 0.01 μM",100%
same,viability at 0.1 µM,"MDA-MB-436 Cell line; MDA-MB-436, 0.1 μM",99.9%
same,viability at 2.5 µM,"MDA-MB-436 Cell line; MDA-MB-436, 2.5 μM",101%
same,viability at 5 µM,"MDA-MB-436 Cell line; MDA-MB-436, 5 μM",93.8%
same,viability at 10 µM,"MDA-MB-436 Cell line; MDA-MB-436, 10 μM",91.8%
same,viability at 0.01 µM,"MCF-7 Cell line; MCF-7, 0.01 μM",100%
same,viability at 0.1 µM,"MCF-7 Cell line; MCF-7, 0.1 μM",101%
same,viability at 2.5 µM,"MCF-7 Cell line; MCF-7, 2.5 μM",101%
same,viability at 5 µM,"MCF-7 Cell line; MCF-7, 5 μM",101%
same,viability at 10 µM,"MCF-7 Cell line; MCF-7, 10 μM",101%
